Assay results: patent publication US20240009159A1, “ANTIVIRAL COMPOSITION FOR SARS-COV-2 AND HCOV-OC43 COMPRISING RHEIN, MECLOFENAMIC ACID, OR A COMBINATION THEREOF” (SEOUL NATIONAL UNIVERSITY R&DB FOUNDATION, priority 2020, published 2024)
Read-outs that look alike come from different tables or passages of the source.

What was measured:
HCoV-OC43 [1] = assay: viral RNA level by qRT-PCR in HCoV-OC43-infected HCT-8 cells; assay type: cell-based, human coronavirus OC43 (HCoV-OC43)
SARS-CoV-2 [2] = assay type: cell-based; conditions: MA at 50 μM, treated two hours before infection; SARS-CoV-2-infected differentiated HBEC cells, 3.3×10^4 PFU; 48 hours after infection
HCoV-OC43 [3] = assay: viral RNA level by qRT-PCR in HCoV-OC43-infected Vero cells; assay type: cell-based, human coronavirus OC43 (HCoV-OC43); conditions: for viral RNA level of N (normalized to GAPDH): control DMSO
SARS-CoV-2 [4] = assay type: cell-based; conditions: SARS-CoV-2-infected Vero cells
SARS-CoV-2 [5] = assay type: cell-based; conditions: SARS-CoV-2-infected Calu-3 cells
[6] = rhein at 25 μM, MOI 0.05, 24 hours after infection, control DMSO

Cc1ccc(Cl)c(Nc2ccccc2C(=O)O)c1Cl [MA, meclofenamic acid]
viral RNA level of N (normalized to GAPDH) (HCoV-OC43 [1]; MA at 50 μM, control DMSO and ethanol): significantly inhibited
viral RNA levels (nsp12, M, and N, normalized to GAPDH) compared with the control group (SARS-CoV-2 [2]): ≤ 40%
viral RNA level of N (normalized to GAPDH) (HCoV-OC43 [3]; MA at 10 μM, 25 μM, 50 μM, and 100 μM): significantly inhibited
viral RNA levels of nsp12, M, and N (normalized to GAPDH) compared with the control group (SARS-CoV-2 [4]; MA at 50 μM, control ethanol): less than 5%
viral RNA levels of nsp12, M, and N (normalized to GAPDH) compared with the control group (SARS-CoV-2 [5]; MA at 50 μM, control ethanol): less than 5%

O=C(O)c1cc(O)c2c(c1)C(=O)c1cccc(O)c1C2=O [rhein, 4,5-dihydroxy-9,10-dioxoanthracene-2-carboxylic acid]
viral RNA level of N (normalized to GAPDH) (HCoV-OC43 [1]; rhein at 250 μM and 25 μM, 24 hours after infection, control DMSO+Ethanol): significantly inhibited
dose dependence of inhibition of the RNA level of N (HCoV-OC43 [3]; increasing concentration of rhein (5-50 μM), FIG. 1D): dose-dependent effect was confirmed
viral RNA level of N (normalized to GAPDH) (HCoV-OC43 [3]; rhein at 5 μM, 10 μM, 25 μM, and 50 μM, 24 hours after infection): significantly inhibited
viral RNA levels of nsp12, M, and N (normalized to GAPDH) compared with the control group (SARS-CoV-2 [4]; [6]): less than 30%
viral RNA levels of nsp12, M, and N (normalized to GAPDH) compared with the control group (SARS-CoV-2 [5]; [6]): less than 5%
